Counter-ions that a name gives are not always drawn. Like-named read-outs stand apart in the source and are kept apart here.
Tests used:
Format in all cases: biochemical
recombinant PRL-2 = molecular target: T1, recombinant PRL-2 (Homo sapiens, UniProt Q12974); experiment: In vitro phosphatase assay (DiFMUP hydrolysis), PRL-2;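 further: PRL-2 activity read as DiFMUP hydrolysis after 20 min at room temperature with drug, enzyme first pre-reduced at 4 °C for 20 min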
T1 construct: 6xHis (N, cleaved yes); made in house; host or cells: E. coli One Shot BL21 Star
T1 sequence (Q12974 1-167): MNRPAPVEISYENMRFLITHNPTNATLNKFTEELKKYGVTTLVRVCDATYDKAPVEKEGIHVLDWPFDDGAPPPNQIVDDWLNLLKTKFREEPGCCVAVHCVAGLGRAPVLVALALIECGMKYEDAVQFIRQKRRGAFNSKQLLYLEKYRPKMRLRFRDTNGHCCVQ

recombinant PRL-3 = molecular target: T2, recombinant PRL-3 (Homo sapiens, UniProt O75365); experiment: In vitro phosphatase assay (DiFMUP hydrolysis), PRL-3; further: test concentration or dose not given here
T2 construct: 6xHis (N, cleaved yes); made in house; host or cells: E. coli One Shot BL21 Star
T2 sequence (O75365 whole entry): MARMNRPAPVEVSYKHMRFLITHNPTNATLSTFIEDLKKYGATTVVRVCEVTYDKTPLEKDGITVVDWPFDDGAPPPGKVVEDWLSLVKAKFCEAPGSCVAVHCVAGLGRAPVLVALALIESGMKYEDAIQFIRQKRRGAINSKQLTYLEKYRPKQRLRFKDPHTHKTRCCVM

recombinant PRL-1 = molecular target: T3, recombinant PRL-1 (Homo sapiens, UniProt Q93096); experiment: In vitro phosphatase assay (DiFMUP hydrolysis), PRL-1; settings: FDA-approved drug screen; further: test concentration or dose not given here
T3 construct: 6xHis (N, cleaved yes); made in house; host or cells: E. coli One Shot BL21 Star
T3 sequence (Q93096 1-173): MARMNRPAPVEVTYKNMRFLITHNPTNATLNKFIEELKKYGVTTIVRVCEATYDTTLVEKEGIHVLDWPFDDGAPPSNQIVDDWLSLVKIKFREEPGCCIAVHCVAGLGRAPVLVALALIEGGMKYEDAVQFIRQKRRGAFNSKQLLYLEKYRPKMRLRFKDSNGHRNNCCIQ

[1] = FDA-approved drug screen, compared to DMSO
[2] = FDA-approved drug screen, activity compared to DMSO

Row | Molecule | % Phosphatase Activity (compared to DMSO) PRL-3 (recombinant PRL-3; [1]) | % Phosphatase Activity (compared to DMSO) PRL-2 (recombinant PRL-2; [1]) | further results
1 | L-Adrenaline | – | – | % Phosphatase Activity (compared to DMSO) PRL-2 (recombinant PRL-2): 98%; % Phosphatase Activity (compared to DMSO) PRL-3 (recombinant PRL-3): 71%
2 | COc1cc(Nc2c(C#N)cnc3cc(OCCCN4CCN(C)CC4)c(OC)cc23)c(Cl)cc1Cl [Bosutinib (SKI-606)] | 82% | – | % Phosphatase Activity (compared to DMSO) PRL-1 (recombinant PRL-1; compared to DMSO): 94%
3 | CCC(C)n1ncn(-c2ccc(N3CCN(c4ccc(OCC5COC(Cn6cncn6)(c6ccc(Cl)cc6Cl)O5)cc4)CC3)cc2)c1=O (stereo not drawn) [Itraconazole] | 74% | 93% | –
4 | CN1CCC(COc2cnc(-c3cccc(Cn4nc(-c5cccc(C#N)c5)ccc4=O)c3)nc2)CC1 [Tepotinib (EMD 1214063)] | – | – | % Phosphatase Activity (compared to DMSO) PRL-2 (recombinant PRL-2; [2]): 110%; % Phosphatase Activity (compared to DMSO) PRL-3 (recombinant PRL-3; [2]): 113%
5 | CC(=O)O[C@H]1C[C@@H]2CC[C@@H]3[C@H](CC[C@@]4(C)[C@H]3C[C@H]([N+]3(C)CCCCC3)[C@@H]4OC(C)=O)[C@@]2(C)C[C@@H]1[N+]1(C)CCCCC1.[Br-].[Br-] [Pancuronium dibromide] | 85% | 109% | –
6 | CN(C)CCCN1c2ccccc2Sc2ccc(Cl)cc21 [Chlorpromazine HCl] | 81% | 109% | –
7 | O=c1[nH]cc(F)c(=O)[nH]1 [Fluorouracil (5-Fluoracil, 5-FU)] | 75% | 109% | –
8 | Cl.N=C(N=C(N)N)N1CCOCC1 [Moroxydine HCl] | 79% | 102% | –
9 | Cc1ccnc(NS(=O)(=O)c2ccc(N)cc2)n1 [Sulfamerazine] | – | – | % Phosphatase Activity (compared to DMSO) PRL-2 (recombinant PRL-2; [2]): 108%; % Phosphatase Activity (compared to DMSO) PRL-3 (recombinant PRL-3; [2]): 83%
10 | Br.COc1ccc2c3c1O[C@H]1C[C@@H](O)C=C[C@@]31CCN(C)C2 [Galanthamine HBr] | 93% | 85% | –
11 | O=S(=O)([O-])CCCS(=O)(=O)[O-].[Na+].[Na+] [Eprodisate (disodium)] | 112% | 126% | –
12 | Nc1ccc(S(N)(=O)=O)cc1 [Sulfanilamide] | – | – | % Phosphatase Activity (compared to DMSO) PRL-2 (recombinant PRL-2; [2]): 92%; % Phosphatase Activity (compared to DMSO) PRL-3 (recombinant PRL-3; [2]): 77%
13 | CN1[C@@H]2C[C@@H](OC(=O)[C@H](CO)c3ccccc3)C[C@H]1[C@@H]1O[C@@H]12 [Scopolamine HBr] | 77% | – | % Phosphatase Activity (compared to DMSO) PRL-1 (recombinant PRL-1; compared to DMSO): 91%
14 | Bleomycin Sulfate | 64% | 100% | –
15 | CN(CCOc1ccc(NS(C)(=O)=O)cc1)CCc1ccc(NS(C)(=O)=O)cc1 [Dofetilide] | 82% | 88% | –
16 | O=C(O)CCCN1CCC(O[C@@H](c2ccc(Cl)cc2)c2ccccn2)CC1.O=S(=O)(O)c1ccccc1 [Bepotastine Besilate] | 98% | 113% | –
17 | FC(F)(F)c1ccc(/C=C/c2nc(COc3ccc(CCCCn4ccnn4)cc3)co2)cc1 [Mubritinib (TAK 165)] | – | – | % Phosphatase Activity (compared to DMSO) PRL-2 (recombinant PRL-2): 114%; % Phosphatase Activity (compared to DMSO) PRL-3 (recombinant PRL-3): 101%
18 | Colistin Sulfate | 120% | – | % Phosphatase Activity (compared to DMSO) PRL-1 (recombinant PRL-1; compared to DMSO): 91%
19 | COc1cc(OC)c(C(=O)CCCN2CCCC2)c(OC)c1.Cl [Buflomedil HCl] | 87% | 118% | –
20 | CN(C)C/C=C/C(=O)Nc1cc2c(Nc3ccc(F)c(Cl)c3)ncnc2cc1O[C@H]1CCOC1 [Afatinib (BIBW2992)] | 85% | 106% | –
21 | Nc1c2c(nc3ccccc13)CCCC2 [Tacrine HCl] | – | – | % Phosphatase Activity (compared to DMSO) PRL-2 (recombinant PRL-2): 89%; % Phosphatase Activity (compared to DMSO) PRL-3 (recombinant PRL-3): 89%
22 | Clc1ccccc1C(c1ccccc1)(c1ccccc1)n1ccnc1 [Clotrimazole] | 88% | 108% | –
23 | COC(=O)C1=C(C)NC(C)=C(C(=O)OCCN2CCN(C(c3ccccc3)c3ccccc3)CC2)C1c1cccc([N+](=O)[O-])c1 (stereo not drawn) [Manidipine] | 77% | 93% | –
24 | Cc1cc(C2CCCCC2)n(O)c(=O)c1 [Ciclopirox] | 76% | 111% | –
25 | CN1CCN(CCCN2c3ccccc3Sc3ccc(C(F)(F)F)cc32)CC1.Cl.Cl [Trifluoperazine 2HCl] | – | – | % Phosphatase Activity (compared to DMSO) PRL-1 (recombinant PRL-1; activity compared to DMSO): 103%; % Phosphatase Activity (compared to DMSO) PRL-3 (recombinant PRL-3; [2]): 100%
26 | CC1(C)S[C@@H]2[C@H](NC(=O)[C@H](N)c3ccc(O)cc3)C(=O)N2[C@H]1C(=O)O [Amoxicillin] | 106% | 150% | –

Row | Molecule | % Phosphatase Activity (compared to DMSO) PRL-3 (recombinant PRL-3; [1]) | % Phosphatase Activity (compared to DMSO) PRL-2 (recombinant PRL-2; [1]) | further results
27 | OC(Cn1cncn1)(Cn1cncn1)c1ccc(F)cc1F [Fluconazole] | 76% | 97% | –
28 | C=C1CC[C@@]2(O)[C@H]3Cc4ccc(O)c5c4[C@@]2(CCN3CC2CC2)[C@H]1O5 [Nalmefene HCl] | 95% | 102% | –
29 | Cl.O=C(O)/C=C/c1ccc(Cn2ccnc2)cc1 [Ozagrel HCl] | 81% | 120% | –
30 | COc1cc2c(cc1OC)[C@@]13CCN4CC5=CCO[C@H]6CC(=O)N2[C@H]1[C@H]6[C@H]5C[C@H]43 [Brucine] | 83% | 86% | –
31 | CN1CCC(=C2c3ccccc3C=Cc3ccccc32)CC1 [Cyproheptadine HCl] | 93% | 112% | –
32 | CCOc1ccc(NC(C)=O)cc1 [Phenacetin] | 81% | 114% | –
33 | Cc1ccc([C@@H]2O[C@H](CO)[C@@H](O)[C@H](O)[C@H]2O)cc1Cc1ccc(-c2ccc(F)cc2)s1 [Canagliflozin] | 90% | 106% | –
34 | COc1cc(Cc2cnc(N)nc2N)cc(OC)c1OC [Trimethoprim] | – | – | % Phosphatase Activity (compared to DMSO) PRL-2 (recombinant PRL-2): 107%; % Phosphatase Activity (compared to DMSO) PRL-3 (recombinant PRL-3): 79%
35 | CCn1cc(C(=O)O)c(=O)c2cc(F)c(N3CCNCC3)nc21 [Enoxacin] | 98% | 95% | –
36 | C[C@@H](c1ncncc1F)[C@](O)(Cn1cncn1)c1ccc(F)cc1F [Voriconazole] | – | – | % Phosphatase Activity (compared to DMSO) PRL-2 (recombinant PRL-2; [2]): 92%; % Phosphatase Activity (compared to DMSO) PRL-3 (recombinant PRL-3; [2]): 86%
37 | CC1(C)S[C@@H]2[C@H](NC(=O)C(C(=O)O)c3ccccc3)C(=O)N2[C@H]1C(=O)O (stereo partly drawn) [Carbenicillin disodium] | 87% | 101% | –
38 | CCc1nc(N)nc(N)c1-c1ccc(Cl)cc1 [Pyrimethamine] | 89% | 109% | –
39 | COc1ccc([C@]2(C#N)CC[C@@H](C(=O)O)CC2)cc1OC1CCCC1 [Cilomilast] | 88% | 99% | –
40 | C[N+]1(C)CCC(=C(c2ccccc2)c2ccccc2)CC1 [Diphemanil Methylsulfate] | 91% | 124% | –
41 | CCN(CC)CC(=O)Nc1c(C)cccc1C [Lidocaine] | 63% | 91% | –
42 | C[C@@H](NCCCc1cccc(C(F)(F)F)c1)c1cccc2ccccc12 [Cinacalcet HCl] | 81% | 114% | –
43 | Cl.Cl.OCCOCCN1CCN(C(c2ccccc2)c2ccc(Cl)cc2)CC1 (stereo not drawn) [Hydroxyzine 2HCl] | 85% | 103% | –
44 | COc1cc2nccc(Oc3ccc(NC(=O)C4(C(=O)Nc5ccc(F)cc5)CC4)cc3)c2cc1OC.O=C(O)C[C@H](O)C(=O)O [Cabozantinib malate (XL184)] | 96% | 115% | –
45 | C#C[C@]1(O)CC[C@H]2[C@@H]3CCc4cc(OC)ccc4[C@H]3CC[C@@]21C [Mestranol] | 77% | 99% | –
46 | CCC1(C)CC(=O)NC(=O)C1 [Bemegride] | 81% | 97% | –
47 | OC[C@@H](O)[C@H](O)[C@@H](O)CO [Xylitol] | – | – | % Phosphatase Activity (compared to DMSO) PRL-2 (recombinant PRL-2; [2]): 99%; % Phosphatase Activity (compared to DMSO) PRL-3 (recombinant PRL-3; [2]): 96%
48 | CCN[C@H]1C[C@H](C)S(=O)(=O)c2sc(S(N)(=O)=O)cc21 [Dorzolamide HCl] | 87% | 81% | –
49 | O=C(O)c1ccccc1 [Benzoic Acid] | 76% | 101% | –
50 | C[C@@H](Oc1cc(-c2cnn(C3CCNCC3)c2)cnc1N)c1c(Cl)ccc(F)c1Cl [Crizotinib (PF-02341066)] | 81% | 119% | –
51 | CCN(CC)CCOC(=O)C(c1ccccc1)c1ccccc1 [Adiphenine HCl] | 82% | 101% | –
